Measurements as given in ChEMBL document CHEMBL1909046, “DrugMatrix in vitro pharmacology data”.

How the values were obtained:
Cannabinoid receptor 1 = Cannabinoid receptor 1 (Homo sapiens, UniProt P21554); assay type: cell membranes, Chem-1, Membrane; also: in other assays of this panel Not Active means under 50% inhibition at 10 µM
[1] = target: 5-hydroxytryptamine receptor 4 (Cavia porcellus, UniProt O70528); assay type: cell membranes, Dunkin-Hartley, Striatum, Membrane; also: in other assays of this panel Not Active means under 50% inhibition at 10 µM
[2] = target: T1, Muscarinic acetylcholine receptor M5 (Homo sapiens, UniProt P08912); assay type: cell membranes, CHO-K1, Membrane; also: in other assays of this panel Not Active means under 50% inhibition at 10 µM
T1 sequence (P08912 whole entry): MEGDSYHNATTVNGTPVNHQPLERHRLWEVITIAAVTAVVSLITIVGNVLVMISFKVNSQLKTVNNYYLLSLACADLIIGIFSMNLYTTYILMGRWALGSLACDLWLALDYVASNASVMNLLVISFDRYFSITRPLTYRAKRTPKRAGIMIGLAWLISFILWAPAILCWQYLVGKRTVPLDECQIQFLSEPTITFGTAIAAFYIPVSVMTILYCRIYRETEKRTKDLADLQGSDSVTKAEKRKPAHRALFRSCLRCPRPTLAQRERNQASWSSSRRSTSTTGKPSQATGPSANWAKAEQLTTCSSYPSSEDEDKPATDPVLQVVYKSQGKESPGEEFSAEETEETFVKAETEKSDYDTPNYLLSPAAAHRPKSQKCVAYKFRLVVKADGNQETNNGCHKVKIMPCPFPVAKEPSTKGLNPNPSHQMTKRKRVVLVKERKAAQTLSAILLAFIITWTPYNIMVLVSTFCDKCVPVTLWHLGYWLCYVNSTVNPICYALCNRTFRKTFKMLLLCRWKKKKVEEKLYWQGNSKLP

[3] = target: T2, Alpha-2C adrenergic receptor (Homo sapiens, UniProt P18825); assay: DRUGMATRIX: Adrenergic Alpha-2C radioligand binding (ligand: [3H] MK-912); assay type: cell membranes, Sf9, Membrane
T2 sequence (P18825 whole entry): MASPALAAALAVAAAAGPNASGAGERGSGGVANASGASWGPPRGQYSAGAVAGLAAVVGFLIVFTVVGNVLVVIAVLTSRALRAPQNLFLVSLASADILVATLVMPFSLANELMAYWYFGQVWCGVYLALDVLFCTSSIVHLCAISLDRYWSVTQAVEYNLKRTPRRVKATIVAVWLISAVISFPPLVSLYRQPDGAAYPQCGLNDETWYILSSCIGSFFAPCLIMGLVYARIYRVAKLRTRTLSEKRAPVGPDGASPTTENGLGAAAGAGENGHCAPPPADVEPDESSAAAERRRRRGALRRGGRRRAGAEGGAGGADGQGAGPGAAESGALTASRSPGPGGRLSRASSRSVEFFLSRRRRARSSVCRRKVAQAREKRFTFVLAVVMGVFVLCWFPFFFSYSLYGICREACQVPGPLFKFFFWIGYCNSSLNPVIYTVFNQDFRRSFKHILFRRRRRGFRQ

[4] = DRUGMATRIX: Phosphodiesterase PDE3 enzyme inhibition (substrate: [3H]cAMP + cAMP); assay type: tissue-based, Homo sapiens; conditions: platelet; Not Active = under 50% inhibition at 10 µM

Chain of 5-hydroxytryptamine receptor 4 (O70528 whole entry): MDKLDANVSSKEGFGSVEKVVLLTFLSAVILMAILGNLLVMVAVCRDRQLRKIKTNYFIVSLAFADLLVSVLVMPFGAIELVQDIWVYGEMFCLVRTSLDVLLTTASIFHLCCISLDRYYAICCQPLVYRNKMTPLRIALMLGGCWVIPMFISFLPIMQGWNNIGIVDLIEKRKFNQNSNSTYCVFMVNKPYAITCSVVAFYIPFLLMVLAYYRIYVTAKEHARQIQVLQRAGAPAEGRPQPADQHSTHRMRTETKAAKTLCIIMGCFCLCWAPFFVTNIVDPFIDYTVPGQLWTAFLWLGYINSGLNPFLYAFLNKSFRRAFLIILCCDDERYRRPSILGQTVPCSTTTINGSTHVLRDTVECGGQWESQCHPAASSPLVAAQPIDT
Chain of Cannabinoid receptor 1 (P21554 whole entry): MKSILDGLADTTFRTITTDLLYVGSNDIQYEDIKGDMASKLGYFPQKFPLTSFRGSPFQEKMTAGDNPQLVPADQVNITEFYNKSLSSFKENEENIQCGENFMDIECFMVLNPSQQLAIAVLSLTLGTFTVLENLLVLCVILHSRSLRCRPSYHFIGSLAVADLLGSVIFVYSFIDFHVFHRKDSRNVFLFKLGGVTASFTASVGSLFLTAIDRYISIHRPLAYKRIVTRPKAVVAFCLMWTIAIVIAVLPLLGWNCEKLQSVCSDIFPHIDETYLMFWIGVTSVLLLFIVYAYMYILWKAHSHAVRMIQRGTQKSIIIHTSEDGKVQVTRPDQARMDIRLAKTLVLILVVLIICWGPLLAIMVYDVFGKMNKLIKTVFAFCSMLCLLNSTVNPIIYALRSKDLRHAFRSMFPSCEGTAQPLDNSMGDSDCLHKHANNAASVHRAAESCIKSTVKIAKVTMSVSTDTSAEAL

Row | Compound | IC50 (Cannabinoid receptor 1; chem-1) | IC50 [1] | IC50 ([2]; cho-k1) | IC50 ([3]; sf9) | IC50 [4] | Ki [4] | IC50 ([3]; read-out: IC50) [nM] | Ki ([3]; read-out: Ki) [nM] | IC50 ([2]; read-out: IC50) [nM] | Ki ([2]; read-out: Ki) [nM] | Ki (Cannabinoid receptor 1; chem-1) | Ki [1] | Ki ([2]; cho-k1) | Ki ([3]; sf9) | IC50 (Cannabinoid receptor 1; read-out: IC50) [nM] | Ki (Cannabinoid receptor 1; read-out: Ki) [nM]
1 | CC(C)(C#N)c1cc(Cn2cncn2)cc(C(C)(C)C#N)c1 [ANASTROZOLE] | Not Active | Not Active | Not Active | Not Active | Not Active | Not Active |  |  |  |  |  |  |  |  |  | 
2 | CC12CCC(CC1=O)C2(C)C (centres undefined) [CAMPHOR] | Not Active | Not Active | Not Active | Not Active | Not Active | Not Active |  |  |  |  |  |  |  |  |  | 
3 | CC12CCC(CC1)C(C)(C)O2 [EUCALYPTOL] | Not Active | Not Active | Not Active | Not Active | Not Active | Not Active |  |  |  |  |  |  |  |  |  | 
4 | Cc1ccnc2c1NC(=O)c1cccnc1N2C1CC1 [NEVIRAPINE] | Not Active | Not Active | Not Active | Not Active | Not Active | Not Active |  |  |  |  |  |  |  |  |  | 
5 | Clc1cc(Cl)c(OCC#CI)cc1Cl [HALOPROGIN] | Not Active | Not Active | Not Active |  | Not Active | Not Active | 4040 | 588 |  |  |  |  |  |  |  | 
6 | Oc1ccccc1 [PHENOL] | Not Active | Not Active | Not Active | Not Active | Not Active | Not Active |  |  |  |  |  |  |  |  |  | 
7 | CCCCCCNC(=O)n1cc(F)c(=O)[nH]c1=O [CARMOFUR] | Not Active | Not Active | Not Active | Not Active | Not Active | Not Active |  |  |  |  |  |  |  |  |  | 
8 | Nc1ccc(C(=O)O)c(O)c1 [AMINOSALICYLIC ACID] | Not Active | Not Active | Not Active | Not Active | Not Active | Not Active |  |  |  |  |  |  |  |  |  | 
9 | COc1cc(NC(C)CCCN)c2ncccc2c1 (centres undefined) [PRIMAQUINE] | Not Active | Not Active | Not Active | Not Active | Not Active | Not Active |  |  |  |  |  |  |  |  |  | 
10 | Cc1cc(C(C)(C)C)c(O)c(C)c1CC1=NCCN1 [OXYMETAZOLINE] | Not Active | Not Active |  |  | Not Active | Not Active |  |  | 1330 | 957 |  |  |  |  |  | 
11 | O=c1[nH]cnc2c1ncn2[C@H]1CC[C@@H](CO)O1 [DIDANOSINE] | Not Active | Not Active | Not Active | Not Active | Not Active | Not Active |  |  |  |  |  |  |  |  |  | 
12 | CC(=O)[C@]1(O)Cc2c(O)c3c(c(O)c2[C@@H](O[C@H]2C[C@H](N)[C@H](O)[C@H](C)O2)C1)C(=O)c1ccccc1C3=O [IDARUBICIN] | Not Active | Not Active | Not Active | Not Active | Not Active | Not Active |  |  |  |  |  |  |  |  |  | 
13 | COC(=O)Nc1nc2ccc(Sc3ccccc3)cc2[nH]1 [FENBENDAZOLE] | Not Active | Not Active | Not Active | Not Active | Not Active | Not Active |  |  |  |  |  |  |  |  |  | 
14 | CC(C)(c1ccc(O)cc1)c1ccc(O)cc1 [BISPHENOL A] | Not Active | Not Active | Not Active | Not Active | Not Active | Not Active |  |  |  |  |  |  |  |  |  | 
15 | C=C(Cl)Cl [1,1-DICHLOROETHENE] | Not Active | Not Active | Not Active | Not Active | Not Active | Not Active |  |  |  |  |  |  |  |  |  | 
16 | O=C(O)CCc1nc(-c2ccccc2)c(-c2ccccc2)o1 [OXAPROZIN] | Not Active | Not Active | Not Active | Not Active | Not Active | Not Active |  |  |  |  |  |  |  |  |  | 

Row | Compound | IC50 (Cannabinoid receptor 1; chem-1) | IC50 [1] | IC50 ([2]; cho-k1) | IC50 ([3]; sf9) | IC50 [4] | Ki [4] | IC50 ([3]; read-out: IC50) [nM] | Ki ([3]; read-out: Ki) [nM] | IC50 ([2]; read-out: IC50) [nM] | Ki ([2]; read-out: Ki) [nM] | Ki (Cannabinoid receptor 1; chem-1) | Ki [1] | Ki ([2]; cho-k1) | Ki ([3]; sf9) | IC50 (Cannabinoid receptor 1; read-out: IC50) [nM] | Ki (Cannabinoid receptor 1; read-out: Ki) [nM]
17 | NCC(CC(=O)O)c1ccc(Cl)cc1 (centres undefined) [BACLOFEN] | Not Active | Not Active | Not Active | Not Active | Not Active | Not Active |  |  |  |  |  |  |  |  |  | 
18 | CC[C@H]1OC(=O)[C@H](C)[C@@H](O[C@H]2C[C@@](C)(OC)[C@@H](O)[C@H](C)O2)[C@H](C)[C@@H](O[C@@H]2O[C@H](C)C[C@H](N(C)C)[C@H]2O)[C@](C)(O)C[C@@H](C)C(=O)[C@H](C)[C@@H](O)[C@]1(C)O [ERYTHROMYCIN] | Not Active | Not Active | Not Active | Not Active | Not Active | Not Active |  |  |  |  |  |  |  |  |  | 
19 | C=CCO [ALLYL ALCOHOL] | Not Active | Not Active | Not Active | Not Active | Not Active | Not Active |  |  |  |  |  |  |  |  |  | 
20 | COC(=O)C[C@](O)(CCC(C)(C)O)C(=O)O[C@@H]1C(OC)=C[C@]23CCCN2CCc2cc4c(cc2[C@H]13)OCO4 [HARRINGTONINE] | Not Active | Not Active | Not Active | Not Active | Not Active | Not Active |  |  |  |  |  |  |  |  |  | 
21 | CHROMIC CHLORIDE | Not Active | Not Active | Not Active | Not Active | Not Active | Not Active |  |  |  |  | Not Active | Not Active | Not Active | Not Active |  | 
22 | C#C[C@]1(O)CC[C@H]2[C@@H]3CCC4=CC(=O)CC[C@@H]4[C@H]3CC[C@@]21C [NORETHINDRONE] | Not Active | Not Active | Not Active | Not Active | Not Active | Not Active |  |  |  |  |  |  |  |  |  | 
23 | O=C1CN(/N=C/c2ccc([N+](=O)[O-])o2)C(=O)N1 [NITROFURANTOIN] | Not Active | Not Active | Not Active | Not Active | Not Active | Not Active |  |  |  |  |  |  |  |  |  | 
24 | c1ccc2c(c1)Nc1ccccc1S2 [PHENOTHIAZINE] |  | Not Active | Not Active | Not Active | Not Active | Not Active |  |  |  |  |  |  |  |  | 24900 | 19600
25 | CC(CN1c2ccccc2Sc2ccccc21)N(C)C (centres undefined) [PROMETHAZINE] | Not Active | Not Active |  |  | Not Active | Not Active | 2430 | 353 | 4.6 | 3.31 |  |  |  |  |  | 
26 | c1ccc(Cn2ccnc2)cc1 | Not Active | Not Active | Not Active | Not Active | Not Active | Not Active |  |  |  |  |  |  |  |  |  | 
27 | CC(C)Cn1cnc2c(N)nc3ccccc3c21 [IMIQUIMOD] | Not Active | Not Active | Not Active | Not Active | Not Active | Not Active |  |  |  |  |  |  |  |  |  | 
28 | OC[C@H]1OC2C3[C@@H](CO)OC(O[C@H]4[C@H](O)[C@@H](O)[C@@H](O[C@H]5[C@H](O)[C@@H](O)[C@@H](O[C@H]6[C@H](O)[C@@H](O)[C@@H](O[C@H]7[C@H](O)[C@@H](O)[C@@H](O[C@H]8[C@H](O)[C@@H](O)[C@@H](O[C@H]9[C@H](O)[C@@H](O)C(OC1[C@H](O)[C@H]2O)O[C@@H]9CO)O[C@@H]8CO)O[C@@H]7CO)O[C@@H]6CO)O[C@@H]5CO)O[C@@H]4CO)[C@H](O)[C@H]3O | Not Active | Not Active | Not Active | Not Active | Not Active | Not Active |  |  |  |  |  |  |  |  |  | 
29 | COc1cc(/C=C/C(=O)O)ccc1O [FERULATE] | Not Active | Not Active | Not Active | Not Active | Not Active | Not Active |  |  |  |  |  |  |  |  |  | 
30 | CCN1C[C@]2(COC)[C@H](O)C[C@H](OC)[C@@]34[C@@H]5C[C@@]6(O)[C@H](OC(=O)c7ccccc7)[C@@H]5[C@@](OC(C)=O)([C@@H]([C@H](OC)[C@H]23)[C@@H]14)[C@@H](O)[C@@H]6OC [ACONITINE] | Not Active | Not Active | Not Active | Not Active | Not Active | Not Active |  |  |  |  |  |  |  |  |  | 
31 | CO[C@H]1O[C@@H]2O[C@@]3(C)CC[C@H]4[C@H](C)CC[C@@H]([C@H]1C)[C@@]24OO3 | Not Active | Not Active | Not Active | Not Active | Not Active | Not Active |  |  |  |  |  |  |  |  |  | 
32 | CNC[C@H](O)c1ccc(O)c(O)c1 [EPINEPHRINE] | Not Active | Not Active | Not Active |  | Not Active | Not Active |  |  |  |  |  |  |  |  |  | 
